Test results published in patent US6548494B1, “Tricyclic inhibitors of poly(ADP-ribose) polymerases” (Agouron Pharmaceuticals, Inc., priority 1999, dated 2003).
“And” between values parts separate entries of the source, which are not always exact repeats. Equal entries are not always repeated.

Key:
A549 cells = experiment: Cytotoxicity potentiation assay; format: cell-based; details: test compound 0.4 μM, ratio of IC50 of topotecan alone to IC50 of topotecan with test compound
Experimental: A549 cells (ATCC, Rockville, Md.) were seeded into 96-well cell culture plates (Falcon brand, Fisher Scientific, Pittsburgh, Pa.) 16 to 24 hours before experimental manipulation. Cells were then treated with a test compound (or a combination of test compounds where indicated) each at a concentration of 0.4 μM for either 3 days or 5 days. At the end of treatments, relative cell number was determined either by MTT assay or SRB assay. For the MTT assay, 0.2 μg/μl of MTT (3-(4,5-dimethylthiazol-2-yl)-2,5-diphenyltetrazolium bromide) (Sigma Chemical Co., St. Louis, Mo.) was added to each well of a plate, and the plate was incubated in a cell-culture incubator for 4 hours. Metabolized MTT in each well was solubilized in 150 μl of DMSO (Sigma Chemical Co.) with shaking and quantified with a Wallac 1420 Victor plate reader (EG&G Wallac, Gaithersburg, Md.) at 540 nm. For the SRB assay, cells were fixed with 10% trichloroacetic acid (Sigma Chemical Co) for an hour at 4° C. After extensively washing, fixed cells were stained for 30 minutes with 0.4% sulforhodamine B (SRB, Sigma Chemical Co.) in 1% acetic acid (Sigma Chemical Co). Unbound SRB was washed away with 1% acetic acid. Then the cultures were air-dried, and dye was solubilized with 10 mM unbuffered Tris base (Sigma Chemical Co) with shaking. The bound dye was measured photometrically with the Wallac Victor plate reader at 515 nm. The ratio of the OD (optical density) value of a compound-treated culture to the OD value of a mock-treated culture, expressed in percentage, was used to quantify the cytotoxicity of a compound. […] To quantify the potentiation of the cytotoxicity of topotecan or temozolomide by test compounds, a dimensionless parameter PF50 is used and is defined as the ratio of the IC50 of topotecan or temozolomide alone to the IC50 of topotecan or temozolomide in combination with a test compound. For the compounds of the invention, PF50 values were determined by testing with topotecan.

purified PARP protein = purified PARP protein (Homo sapiens, UniProt P09874); experiment: PARP enzyme inhibition assay; format: biochemical; details: 20 nM purified PARP (5 nM for tight-binding inhibitors), 500 μM NAD+, 25° C.; several values in one cell = repeat determinations; read-out: Inhibition Constant Ki
Chain of purified PARP protein (P09874 whole entry): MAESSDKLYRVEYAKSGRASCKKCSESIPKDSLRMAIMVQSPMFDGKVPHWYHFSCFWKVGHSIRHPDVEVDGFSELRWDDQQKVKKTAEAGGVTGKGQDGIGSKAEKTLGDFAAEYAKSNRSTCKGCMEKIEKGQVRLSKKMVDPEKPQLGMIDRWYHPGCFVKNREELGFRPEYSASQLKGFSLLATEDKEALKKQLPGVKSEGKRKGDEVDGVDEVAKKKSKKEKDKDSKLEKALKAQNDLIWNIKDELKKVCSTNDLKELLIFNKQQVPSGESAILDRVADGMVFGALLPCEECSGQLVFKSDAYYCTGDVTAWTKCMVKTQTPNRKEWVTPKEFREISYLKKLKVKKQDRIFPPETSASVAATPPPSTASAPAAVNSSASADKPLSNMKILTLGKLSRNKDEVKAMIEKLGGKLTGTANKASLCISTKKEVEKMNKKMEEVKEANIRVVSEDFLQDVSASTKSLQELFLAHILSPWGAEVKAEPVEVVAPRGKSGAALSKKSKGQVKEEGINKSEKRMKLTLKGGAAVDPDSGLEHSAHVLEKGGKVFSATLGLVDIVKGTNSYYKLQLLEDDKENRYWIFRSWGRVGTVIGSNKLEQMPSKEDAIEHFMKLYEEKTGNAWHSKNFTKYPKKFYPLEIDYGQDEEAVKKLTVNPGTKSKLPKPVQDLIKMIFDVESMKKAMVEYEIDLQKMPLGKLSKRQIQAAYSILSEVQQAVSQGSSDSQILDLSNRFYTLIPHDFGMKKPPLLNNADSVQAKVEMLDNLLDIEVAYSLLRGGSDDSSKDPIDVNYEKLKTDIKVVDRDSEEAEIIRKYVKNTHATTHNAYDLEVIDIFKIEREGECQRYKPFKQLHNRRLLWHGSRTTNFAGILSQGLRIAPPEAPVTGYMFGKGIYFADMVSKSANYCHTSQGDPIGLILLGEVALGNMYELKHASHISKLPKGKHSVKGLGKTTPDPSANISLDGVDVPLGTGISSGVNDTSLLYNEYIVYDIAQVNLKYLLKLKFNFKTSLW

SMILES | Cytotoxicity Potentiation PF50 (A549 cells) | Ki (purified PARP protein) | melting point
O=C1NCCn2c(-c3ccncc3)nc3cccc1c32 [Example 3, 1-Pyridin-4-yl-8,9-dihydro-7H-2,7,9a-triaza-benzo[cd]azulen-6-one] | 1.4 | 10.9 nM and 12 nM | 269 °C (dec.)
O=C1NCCn2c(-c3ccc(F)c(F)c3)nc3cccc1c32 [Example 4, 1-(3,4-Difluoro-phenyl)-8,9-dihydro-7H-2,7,9a-triaza-benzo[cd]azulen-6-one] | 1.5 | 6.5 nM | 245 to 247 °C
O=C1NCCn2c(-c3ccccc3Cl)nc3cccc1c32 [Example 5, 1-(2-Chloro-phenyl)-8,9-dihydro-7H-2,7,9a-triaza-benzo[cd]azulen-6-one] | 1.3 | 7.7 nM | 253 to 255 °C
O=C1NCCn2c(-c3cccc(Oc4ccccc4)c3)nc3cccc1c32 [Example 6, 1-(3-Phenoxy-phenyl)-8,9-dihydro-7H-2,7,9a-triaza-benzo[cd]azulen-6-one] | 2 | 4.3 nM | 216 to 219 °C
O=C1NCCn2c(-c3cccs3)nc3cccc1c32 [Example 8, 1-Thiophen-2-yl-8,9-dihydro-7H-2,7,9a-triaza-benzo[cd]azulen-6-one] | 1.9 | 6.2 nM | 247 to 250 °C
O=C1NCCn2c(-c3cccc(C(F)(F)F)c3)nc3cccc1c32 [Example 10, 1-(3-Trifluoromethyl-phenyl)-8,9-dihydro-7H-2,7,9a-triaza-benzo[cd]azulen-6-one] | 1.7 | 11.2 nM | 250 to 252 °C
O=C1NCCn2c(-c3ccccn3)nc3cccc1c32 [Example 12, 1-Pyridin-2-yl-8,9-dihydro-7H-2,7,9a-triaza-benzo[cd]azulen-6-one] | 1.3 | 21 nM and 17 nM | 249 to 250 °C
O=C1NCCn2c(-c3ccc(Cl)cc3)nc3cccc1c32 [Example 14, 1-(4-Chloro-phenyl)-8,9-dihydro-7H-2,7,9a-triaza-benzo[cd]azulen-6-one] | 1.8 | 5.7 nM and 7.6 nM | 272 to 274 °C
O=C1NCCn2c(-c3cccc(Oc4ccncc4)c3)nc3cccc1c32 [Example 17, 1-[3-(Pyridin-4-yloxy)-phenyl]-8,9-dihydro-7H-2,7,9a-triaza-benzo[cd]azulen-6-one] | 1.7 | 4.8 nM and 5.3 nM | 245 to 247 °C
O=C1NCCn2c(-c3ccc(F)cc3)nc3cc(F)cc1c32 [Example 18, 4-Fluoro-1-(4-fluoro-phenyl)-8,9-dihydro-7H-2,7,9a-triaza-benzo[cd]azulen-6-one] | 2 | 3.4 nM | 284 to 287 °C
S=C1NCCn2c(-c3ccccc3)nc3cccc1c32 [Example 25, 1-Phenyl-8,9-dihydro-7H-2,7,9a-triaza-benzo[cd]azulen-6-thione] | 1.4 | – | 224 °C (dec.)
CN(C)Cc1cccc(-c2nc3cccc4c3n2CCNC4=O)c1 [Example 32, 1-(3-Dimethylaminomethyl-phenyl)-8,9-dihydro-7H-2,7,9a-triaza-benzo[cd]azulen-6-one] | 1.8 | 6.3 nM | 192 to 194 °C (dec.)
O=C1NCCn2c(-c3ccc(CN4CC=CC4)cc3)nc3cc(F)cc1c32 [Example 177, 1-[4-(2,5-Dihydro-pyrrol-1-ylmethyl)-phenyl]-4-fluoro-8,9-dihydro-7H-2,7,9a-triaza-benzo[cd]azulen-6-one] | 2.5 | 4.1 nM | –
COc1cccc(CCNCc2ccc(-c3nc4cccc5c4n3CCNC5=O)cc2)c1 [Example 184, 1-(4-{[2-(3-Methoxy-phenyl)-ethylamino]-methyl}-phenyl)-2,7,8,9-tetrahydro-2,7,9a-triaza-benzo[cd]azulen-6-one] | 2.2 | 6 nM | –
COc1ccc(CCNCc2ccc(-c3nc4cccc5c4n3CCNC5=O)cc2)cc1 [Example 186, 1-(4-{[2-(4-Methoxy-phenyl)-ethylamino]-methyl}-phenyl)-2,7,8,9-tetrahydro-2,7,9a-triaza-benzo[cd]azulen-6-one] | 2.2 | 5.5 nM | –
O=C1NCCn2c(-c3ccc(CNC4Cc5ccccc5C4)cc3)nc3cccc1c32 [Example 197, 1-[4-(Indan-2-ylaminomethyl)-phenyl]-8,9-dihydro-7H-2,7,9a-triaza-benzo[cd]azulen-6-one] | 2.5 | 2.8 nM and 5.2 nM | –
CCN(CCc1ccccn1)Cc1ccc(-c2nc3cccc4c3n2CCNC4=O)cc1 [Example 203, 1-(4-{[Ethyl-(2-pyridin-2-yl-ethyl)-amino]-methyl}-phenyl)-8,9-dihydro-7H-2,7,9a-triaza-benzo[cd]azulen-6-one] | 2.0 | 4.6 nM | –
CN(CCc1cc2ccccc2[nH]1)Cc1ccc(-c2nc3cccc4c3n2CCNC4=O)cc1 [Example 207, 1-[4-({[2-(1H-Indol-2-yl)-ethyl]-methyl-amino}-methyl)-phenyl]-8,9-dihydro-7H-2,7,9a-triaza-benzo[cd]azulen-6-one] | 2.4 | 4.2 nM | –
O=C1NCCn2c(-c3ccc(CN4CCCC4)cc3)nc3cccc1c32 [Example 210, 1-(4-Pyrrolidin-1-ylmethyl-phenyl)-8,9-dihydro-7H-2,7,9a-triaza-benzo[cd]azulen-6-one] | 2.3 | 5 nM | –
O=C1NCCn2c(-c3ccc(CN4CCCC4)cc3)nc3cc(F)cc1c32 [Example 211, 4-Fluoro-1-(4-pyrrolidin-1-ylmethyl-phenyl)-8,9-dihydro-7H-2,7,9a-triaza-benzo[cd]azulen-6-one] | 2.3 | 4.5 nM | –
CC1CCCN1Cc1ccc(-c2nc3cccc4c3n2CCNC4=O)cc1 (stereo not shown) [Example 212, 1-[4-(2-Methyl-pyrrolidin-1-ylmethyl)-phenyl]-8,9-dihydro-7H-2,7,9a-triaza-benzo[cd]azulen-6-one] | 2.0 | 6.8 nM | –
C[C@H]1Cn2c(-c3ccc(CN4CC=CC4)cc3)nc3cccc(c32)C(=O)N1 [Example 223, (S)-1-[4-(2,5-Dihydro-pyrrol-1-ylmethyl)-phenyl]-8-methyl-8,9-dihydro-7H-2,7,9a-triaza-benzo[cd]azulen-6-one] | 2.1 | 8.5 nM | –
C[C@H]1Cn2c(-c3ccc(CN4CCCC4)cc3)nc3cccc(c32)C(=O)N1 [Example 233, (S)-8-Methyl-1-(4-pyrrolidin-1-ylmethyl-phenyl)-8,9-dihydro-7H-2,7,9a-triaza-benzo[cd]azulen-6-one] | 2.2 | 8 nM | –
CC(c1ccc(-c2nc3cccc4c3n2CCNC4=O)cc1)N(C)C (stereo not shown) [Example 245, 1-[4-(1-Dimethylamino-ethyl)-phenyl]-8,9-dihydro-7H-2,7,9a-triaza-benzo[cd]azulen-6-one] | 2.1 | 5.8 nM | –
CC(c1ccc(-c2nc3cccc4c3n2CCNC4=O)cc1)N1CCCC1 (stereo not shown) [Example 246, 1-[4-(1-Pyrrolidin-1-yl-ethyl)-phenyl]-8,9-dihydro-7H-2,7,9a-triaza-benzo[cd]azulen-6-one] | 2.3 | 3.3 nM | –
